How the values were obtained:
[1] = target: T1, recombinant human IL17a (binding to its receptor IL17R) (Homo sapiens, UniProt Q16552); assay: IL-17 competition ELISA I (IL17a coated, IL17R/Fc binding)
T1 construct: purchased R&D Systems 317-ILB (IL17a); 177-IR (IL17R/Fc)
T1 sequence (Q16552 20-155 limits assumed): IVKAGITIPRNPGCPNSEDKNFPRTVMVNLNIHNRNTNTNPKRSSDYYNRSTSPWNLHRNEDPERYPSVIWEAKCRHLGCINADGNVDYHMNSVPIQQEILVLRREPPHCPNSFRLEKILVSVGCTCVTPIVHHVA
Protocol: ELISA I: The ability of the compounds to block binding of IL17a to its receptor, IL17R, was analyzed in a competition ELISA format. High binding 96-well plates (Costar #9018) were coated with 20 nM of recombinant human IL17a (R&D Systems #317-ILB) in PBS (0.64 μg/mL), 100 μL/well, for 30 min at 37′C followed by 5 min at 4′C. Plates were then washed in PBST (PBS/0.05% Tween-20) on a plate washer, (Biotech EL-450) blocked with protein-free blocking buffer (Thermo Scientific #37573) in 250 μL/well for 30 min on shaker at room temperature, and then washed again. Compound dilutions prepared in PBST were added into the wells in duplicates followed by the addition of IL17R/Fc (R&D Systems #177-IR) at a final concentration of 12 nM. Plates were then incubated for 30 min at room temperature on the shaker. Wells with no compound served as a positive “no competitor” control, while wells with no IL17R/Fc and no compound served as a blank negative control. After an additional PBST wash, 50 ng/mL HRP-conjugated goat anti-human Fc IgG (KPL #04-10-20) was added to the plate for 30 min at room temperature, followed by PBST wash and addition of SureBlue™ TMB (KPL #52-00-03). After the sufficient color development, the reaction was fixed by the addition of 100 μL/well 0.5 N HCl and absorbance was measured at 450 nm on Biotek plate reader.
Data were processed using BioAssay Enterprise v10.1.4 (CambridgeSoft) software. Linear OD λ450 were plotted against log concentration (x) and fitted to a 4-parameter logistic equation. IC50 was calculated using positive ‘no competitor’ control data as an upper limit and blank control as a lower limit in each assay.

[2] = target: T2, biotinylated human IL-17 (binding to IL17R/Fc) (Homo sapiens, UniProt Q16552); assay: IL-17 competition ELISA II (captured IL17R/Fc, biotinylated IL-17)
T2 construct: purchased R&D Systems 317-ILB (IL-17, biotinylated); 177-IR (IL17R/Fc)
T2 sequence (Q16552 20-155 limits assumed): T1 sequence (Q16552 20-155 limits assumed)
Outline: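 Anti-human IgG-coated plates captured IL17R/Fc (10 nM), then compound (5-fold dilutions from 1 μM) and biotinylated human IL-17 (20 nM stock) were added for 30 min at room temperature in PBST. Bound IL-17 detected by streptavidin-HRP/TMB at 450 nm. IC50 from 4-parameter logistic fit between no-competitor and blank controls.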

Row | Compound | IC50 [1] [nM] | IC50 [2] [nM]
1 | C[C@H]1NC(=O)[C@@H](Cc2ccc(NC(=O)[C@H](Cc3ccccc3Cl)NC(=O)C(F)(F)c3ccccc3)cc2)NC(=O)CC2(CCCC2)NC(=O)CCNC(=O)CCN(C)C1=O [Compound 636] | – | < 100
2 | COC(=O)N[C@@H](Cc1ccccc1Cl)C(=O)Nc1ccc(C[C@H]2NC(=O)CC3(CCCC3)CC(=O)N(C)CCCCCN(C)C(=O)[C@@H](C)NC2=O)cc1 [Compound 570] | – | < 100
3 | COC(=O)N[C@@H](Cc1ccccc1Cl)C(=O)Nc1ccc(C[C@H]2NC(=O)CC3(CCCC3)CC(=O)N(C)CCN(C)CCN(C)C(=O)[C@@H](C)NC2=O)cc1 [Compound 588] | – | < 100
4 | CN1CCCCCOC(=O)CC2(CCCC2)CC(=O)N[C@H](Cc2ccc(NC(=O)[C@H](Cc3ccccc3Cl)NC(=O)C(F)(F)c3ccccc3)cc2)C(=O)NCC1=O [Compound 678] | – | < 100
5 | CN1CCCC[C@@H](C(=O)O)N(C)C(=O)CC2(CCCC2)CC(=O)N[C@H](Cc2ccc(NC(=O)[C@@H](NC(=O)C(F)(F)c3ccccc3)C3CCCCC3)cc2)C(=O)N[C@H](CCC(N)=O)C1=O [Compound 668] | – | < 100
6 | CN1CCCCCNC(=O)[C@@H]2CCCN2C(=O)[C@@H](Cc2ccc(NC(=O)[C@H](Cc3ccccc3)N(C)C(=O)c3ccccc3)cc2)N(C)C(=O)CC2(CCCC2)CC1=O [Compound 383] | – | 1000 to 10000
7 | C[C@H]1NC(=O)[C@@H](Cc2ccc(NC(=O)[C@@H](NC(=O)C(F)(F)c3ccccc3)C3Cc4ccccc4C3)cc2)NC(=O)CC2(CCCC2)CC(=O)N(C)CCCCCN(C)C1=O [Compound 631] | – | < 100
8 | CC(=O)N[C@H](C(=O)Nc1ccc(C[C@H]2NC(=O)CC3(CCCC3)CC(=O)OCCCCCNC(=O)CNC2=O)cc1)C1CCCCC1 [Compound 673] | – | < 100
9 | C[C@H]1NC(=O)[C@@H](Cc2ccc(NC(=O)[C@H](Cc3ccccc3Cl)NC(=O)Cc3ccc(F)cc3)cc2)NC(=O)CN(Cc2ccccc2)CC(=O)NCCCCCNC1=O [Compound 557] | – | 100 to 1000
10 | O=C1CC2(CCCC2)CC(=O)N[C@H](Cc2ccc(NC(=O)[C@@H](NC(=O)c3cccnc3)C3CCCCC3)cc2)C(=O)NCCCCN1 [Compound 409] | – | 100 to 1000
11 | CN1CCNC(=O)CC2(CCCC2)CC(=O)N(C)[C@H](Cc2ccc(NC(=O)[C@H](Cc3ccccc3)N(C)C(=O)c3ccccc3)cc2)C(=O)N2CCC[C@H]2C(=O)NCC1 [Compound 371] | – | 1000 to 10000
12 | CN1CCOCCOCCNC(=O)[C@@H](Cc2ccc(NC(=O)[C@H](CC3CCC3)NC(=O)Cc3ccc(N(C)C)cc3)cc2)NC(=O)CC2(CCCC2)CC1=O [Compound 616] | – | < 100
13 | CN1CCCCCNC(=O)CC2(CCCC2)CC(=O)NC(Cc2ccc(NC(=O)C(NC(=O)c3cccnc3)C3CCCCC3)cc2)C1=O (stereo not shown) [Compound 422] | – | 1000 to 10000
14 | C[C@H]1NC(=O)[C@@H](Cc2ccc(NC(=O)[C@@H](Cc3ccccc3Cl)NC(=O)Cc3ccc(F)cc3)cc2)NC(=O)[C@@H]2CC[C@@H](C2)C(=O)NCCCCCNC1=O [Compound 564] | – | 100 to 1000
15 | CN1CCCCCOC(=O)CC2(CCCC2)CC(=O)N[C@H](Cc2ccc(NC(=O)[C@@H](NC(=O)C(F)(F)c3ccccc3)C3CCCCC3)cc2)C(=O)NCC1=O [Compound 679] | – | < 100
16 | CN1CCOCCOCCNC(=O)[C@@H](Cc2ccc(NC(=O)[C@H](Cc3ccccc3Cl)NC(=O)C(F)(F)c3ccccc3)cc2)NC(=O)CC2(CCCC2)CC1=O [Compound 565] | – | < 100
17 | C[C@H]1NC(=O)[C@@H](CCCCNC(=O)[C@H](Cc2ccccc2Cl)NC(=O)C(F)(F)c2ccccc2)NC(=O)CC2(CCCC2)CC(=O)NCCCCCNC1=O [Compound 606] | – | > 10000
18 | C[C@H]1NC(=O)[C@@H](Cc2ccc(NC(=O)[C@@H](NC(=O)C(F)(F)c3ccccc3)C3CCCCC3)cc2)NC(=O)CC2(CCCC2)CC(=O)N(C)CCOCCN(C)C1=O [Compound 602] | – | < 100
19 | C[C@H]1NC(=O)[C@@H](Cc2ccc(NC(=O)[C@H](Cc3ccccc3Cl)NC(=O)[C@H](O)c3ccccc3)cc2)NC(=O)CC2(CCCC2)CC(=O)N(C)CCOCCN(C)C1=O [Compound 583] | – | < 100
20 | C[C@H]1NC(=O)[C@@H](Cc2ccc(NC(=O)[C@@H](NC(=O)C(F)(F)c3ccccc3)C3CCCCC3)cc2)NC(=O)CC2(CCCC2)CC(=O)N(C)CCN(C)CCN(C)C1=O [Compound 604] | – | < 100
21 | CN1CCCCCNC(=O)C(Cc2ccc(NC(=O)C(NC(=O)c3cccnc3)C3CCCCC3)cc2)NC(=O)CC2(CCCC2)CC1=O (stereo not shown) [Compound 421] | – | 1000 to 10000
22 | CN1CCNCCOC(=O)CC2(CCCC2)CC(=O)N[C@H](Cc2ccc(NC(=O)[C@H](Cc3ccccc3Cl)NC(=O)Cc3ccccc3)cc2)C(=O)N[C@H](Cc2ccccc2)C1=O [Compound 445] | – | < 100
23 | COC(=O)c1coc(N[C@@H](Cc2ccccc2Cl)C(=O)Nc2ccc(C[C@H]3NC(=O)CC4(CCCC4)CC(=O)N(C)CCOCCN(C)C(=O)[C@@H](C)NC3=O)cc2)n1 [Compound 666] | – | < 100
24 | Cc1ccc(C[C@H](NC(=O)C2(c3ccc(F)cc3)CC2)C(=O)Nc2ccc(C[C@H]3NC(=O)CC4(CCCC4)CC(=O)NCCOCCOCCNC3=O)cc2)c(C)c1 [Compound 510] | – | 100 to 1000
25 | CN1CCOCCN(C)C(=O)[C@@H](CCS(C)(=O)=O)NC(=O)[C@@H](Cc2ccc(NC(=O)[C@H](Cc3ccccc3Cl)NC(=O)C(F)(F)c3ccccc3)cc2)NC(=O)CC2(CCCC2)CC1=O [Compound 649] | – | < 100

Next, values leading:

Row | IC50 [1] [nM] | IC50 [2] [nM] | Compound
26 | < 100 | – | CN1CCCCCNC(=O)CC2(CCCC2)CC(=O)N[C@H](Cc2ccc(NC(=O)[C@H](Cc3ccccc3Cl)NC(=O)Cc3ccc(O)cc3)cc2)C(=O)NCC1=O [Compound 307]
27 | – | < 100 | C[C@H]1NC(=O)[C@@H](Cc2ccc(NC(=O)[C@H](Cc3ccccc3Cl)NC(=O)Cc3cccc(O)c3)cc2)NC(=O)CC2(CCCC2)CC(=O)NCCCCCNC1=O [Compound 483]
28 | – | < 100 | C[C@H]1NC(=O)[C@@H](Cc2ccc(NC(=O)[C@H](Cc3ccccc3Cl)NC(=O)c3ccc(F)cc3)cc2)NC(=O)CC2(CCCC2)CC(=O)N(C)CCCCCN(C)C1=O [Compound 525]
29 | – | < 100 | C[C@H]1NC(=O)[C@@H](Cc2ccc(NC(=O)[C@H](Cc3ccccc3Cl)NC(=O)Cc3ccc(F)cc3)cc2)NC(=O)CC2(CCCC2)NC(=O)CCCCCCNC1=O [Compound 618]
30 | – | < 100 | CN1CCCC/C=C/CNC(=O)[C@@H](Cc2ccc(NC(=O)[C@H](Cc3ccccc3Cl)NC(=O)Cc3ccc(F)cc3)cc2)NC(=O)CC2(CCCC2)CC1=O [Compound 447]
31 | – | 100 to 1000 | O=C1CC2(CCCC2)CC(=O)N[C@H](Cc2ccc(NC(=O)[C@H](Cc3ccccc3Cl)NC(=O)Cc3ccc(F)cc3)cc2)C(=O)NCCN2CCN(CCN1)CC2 [Compound 532]
32 | – | < 100 | O=C1CC2(CCCC2)CC(=O)N[C@H](Cc2ccc(NC(=O)[C@H](Cc3ccccc3Cl)NC(=O)[C@H](O)c3ccccc3)cc2)C(=O)NCCOCCOCCN1 [Compound 545]
33 | – | < 100 | O=C1CC2(CCCC2)CC(=O)N[C@H](Cc2ccc(NC(=O)[C@H](Cc3ccccc3Cl)NC(=O)Cc3ccccc3)cc2)C(=O)NCCOCCN1 [Compound 397]
34 | – | < 100 | O=C1CC2(CCCC2)CC(=O)N[C@H](Cc2ccc(NC(=O)[C@H](Cc3ccccc3Cl)NC(=O)Cc3ccc(CO)cc3)cc2)C(=O)NCCOCCN1 [Compound 400]
35 | – | < 100 | O=C1CC2(CCCC2)CC(=O)N[C@H](Cc2ccc(NC(=O)[C@H](Cc3ccccc3Cl)NC(=O)Cc3cccc(O)c3)cc2)C(=O)NCCNCCN1 [Compound 466]
36 | – | 100 to 1000 | O=C1CC2(CCCC2)CC(=O)N[C@H](Cc2ccc(NC(=O)[C@H](Cc3ccccc3Cl)NC(=O)Cc3ccc(CO)cc3)cc2)C(=O)NCCNCCN1 [Compound 412]
37 | – | < 100 | C[C@H]1NC(=O)[C@@H](Cc2ccc(NC(=O)[C@H](Cc3ccccc3Cl)NC(=O)Cc3ccc(F)cc3)cc2)NC(=O)CN(C)CC(=O)NCCCCCNC1=O [Compound 558]
38 | – | 100 to 1000 | C[C@H]1NC(=O)[C@@H](Cc2ccc(NC(=O)[C@H](Cc3ccccc3Cl)NC(=O)C3(c4ccc(F)cc4)CC3)cc2)NC(=O)CC2(CCCC2)CC(=O)N(C)CCN(C)CCN(C)C1=O [Compound 563]
39 | – | < 100 | O=C(O)CC[C@H]1NC(=O)[C@@H](Cc2ccc(NC(=O)[C@H](Cc3ccccc3Cl)NC(=O)C3(c4ccc(F)cc4)CC3)cc2)NC(=O)CC2(CCCC2)CC(=O)NCCCCCNC1=O [Compound 472]
40 | – | 100 to 1000 | O=C1CC2(CCCC2)CC(=O)N[C@H](Cc2ccc(NC(=O)[C@H](Cc3ccccc3Cl)NC(=O)Cc3ccccc3)cc2)C(=O)NC/C=C/CCCCCN1 [Compound 283]

— patent publication US9284283B2, “Macrocyclic compounds for modulating IL-17” (ENSEMBLE THERAPEUTICS CORPORATION, priority 2012, dated 2016)
